# Data taken from patent US8420633B2 (Hoffmann-La Roche Inc., priority 2010, dated 2013).
# Biological target: T1, human V1a receptor (Homo sapiens, UniProt P37288)
# T1 construct: expressed in transfected cells; host or cells: HEK293 cells, transiently transfected; membranes prepared
# Assay: human V1a receptor binding (3H-Vasopressin SPA, HEK293 membranes)
# Conditions: 3H-Vasopressin displacement, membranes of HEK293 cells transiently transfected with human V1a; Ki from IC50 by Cheng-Prussoff; read-out: pKi (hV1a) (converted)
# Protocol: The human V1a receptor was cloned by RT-PCR from total human liver RNA. The coding sequence was subcloned in an expression vector after sequencing to confirm the identity of the amplified sequence. […] Cell membranes were prepared from HEK293 cells transiently transfected with the expression vector and grown in 20 liter fermenters with the following protocol.
# 50 g of cells are resuspended in 30 ml freshly prepared ice cold Lysis buffer (50 mM HEPES, 1 mM EDTA, 10 mM magnesium dichloride adjusted to pH=7.4+complete cocktail of protease inhibitor (Roche Diagnostics)). Homogenized with Polytron for 1 min and sonicated on ice for 2×2 minutes at 80% intensity (Vibracell sonicator). The preparation is centrifuged 20 min at 500 g at 4° C., the pellet is discarded and the supernatant centrifuged 1 hour at 43,000 g at 4° C. (19,000 rpm). The pellet is resuspended in 12.5 ml Lysis buffer+12.5 ml sucrose 20% and homogenized using a Polytron for 1-2 min. The protein concentration is determined by the Bradford method and aliquots are stored at −80° C. until use. For binding studies 60 mg Yttrium silicate SPA beads (Amersham®) are mixed with an aliquot of membrane in binding buffer (50 mM Tris, 120 mM sodium chloride, 5 mM potassium chloride, 2 mM calcium dichloride, 10 mM magnesium dichloride) for 15 minutes with mixing. 50 μl of bead/membrane mixture is then added to each well of a 96 well plate, followed by 50 μl of 4 nM 3H-Vasopressin (American Radiolabeled Chemicals). For total binding measurement 100 μl of binding buffer are added to the respective wells, for non-specific binding 100 μl of 8.4 mM cold vasopressin and for compound testing 100 μl of a serial dilution of each compound in 2% dimethyl sulfoxide. The plate is incubated 1 h at room temperature, centrifuged 1 min at 1000 g and counted on a Packard Top-Count. Non-specific binding counts are subtracted from each well and data is normalized to the maximum specific binding set at 100%. To calculate an IC50 the curve is fitted using a non-linear regression model (XLfit) and the Ki is calculated using the Cheng-Prussoff equation.
# T1 sequence (P37288 whole entry): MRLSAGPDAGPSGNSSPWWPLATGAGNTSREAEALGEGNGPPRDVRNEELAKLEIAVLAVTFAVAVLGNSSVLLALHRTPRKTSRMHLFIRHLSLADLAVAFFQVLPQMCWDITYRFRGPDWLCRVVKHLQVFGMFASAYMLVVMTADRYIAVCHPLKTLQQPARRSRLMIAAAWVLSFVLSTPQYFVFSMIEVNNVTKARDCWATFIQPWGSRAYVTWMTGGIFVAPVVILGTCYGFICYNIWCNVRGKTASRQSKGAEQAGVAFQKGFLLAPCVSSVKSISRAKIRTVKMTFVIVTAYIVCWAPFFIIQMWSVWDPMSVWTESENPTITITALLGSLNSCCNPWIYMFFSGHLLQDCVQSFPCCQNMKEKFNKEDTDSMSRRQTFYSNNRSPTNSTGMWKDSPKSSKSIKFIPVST
row,SMILES,Ki
1,"CC(C)N1Cc2cc(Cl)ccc2-n2c(nnc2[C@H]2CC[C@H](c3ccccc3)CC2)C1 [Example 30, trans-8-Chloro-5-isopropyl-1-(4-phenyl-cyclohexyl)-5,6-dihydro-4H-2,3,5,10b-tetraaza-benzo[e]azulene]",1.91 nM
2,"Clc1ccc2c(c1)CN(Cc1ccccn1)Cc1nnc([C@H]3CC[C@H](c4ccccc4)CC3)n1-2 [Example 31, trans-8-Chloro-1-(4-phenyl-cyclohexyl)-5-pyridin-2-ylmethyl-5,6-dihydro-4H-2,3,5,10b-tetraaza-benzo[e]azulene]",2.4 nM
3,"OCCN1Cc2cc(Cl)ccc2-n2c(nnc2[C@H]2CC[C@H](c3ccccc3)CC2)C1 [Example 32, trans-2-[8-Chloro-1-(4-phenyl-cyclohexyl)-4H,6H-2,3,5,10b-tetraaza-benzo[e]azulen-5-yl]-ethanol]",1.41 nM
4,"Clc1ccc2c(c1)CN(c1ccccn1)Cc1nnc([C@H]3CC[C@H](c4ccccc4)CC3)n1-2 [Example 33, trans-8-Chloro-1-(4-phenyl-cyclohexyl)-5-pyridin-2-yl-5,6-dihydro-4H-2,3,5,10b-tetraaza-benzo[e]azulene]",8.91 nM
